Assay: xn = mol fraction of the nth substance listed

NC(N)=O + CO
viscosity [mPa·s], 101 kPa
Settings | 293.15 K | 298.15 K | 303.15 K | 308.15 K | 313.15 K | 318.15 K | 323.15 K
x1 = 0.08238 | 0.924 | 0.849 | 0.781 | 0.721 | 0.668 | 0.62 | 0.576
x1 = 0.09642 | – | 0.9735 | 0.8914 | 0.8215 | 0.7546 | 0.6953 | –
x1 = 0.1034 | 1.031 | 0.942 | 0.864 | 0.794 | 0.732 | 0.677 | 0.627
x1 = 0.1289 | 1.164 | 1.064 | 0.975 | 0.896 | 0.826 | 0.764 | 0.707
x1 = 0.138 | – | 1.222 | 1.111 | 1.019 | 0.9311 | 0.8588 | –

CCCCCCCCCCCC + COC(=O)OC
298.15 K, 101.3 kPa
Settings | viscosity [mPa·s]
x2 = 0.0451 | 1.266
x2 = 0.0943 | 1.206
x2 = 0.1375 | 1.157
x2 = 0.225 | 1.079
x2 = 0.3467 | 0.977
x2 = 0.4784 | 0.877
x2 = 0.6212 | 0.775
x2 = 0.7364 | 0.697
x2 = 0.8599 | 0.633
x2 = 0.9441 | 0.602

CCCCCCCCCCO + COC(=O)OC
viscosity [mPa·s], 100 kPa
Settings | x2 = 0.1001 | x2 = 0.2001 | x2 = 0.3 | x2 = 0.4 | x2 = 0.5002 | x2 = 0.6 | x2 = 0.7001 | x2 = 0.8 | x2 = 0.9
303.15 K | 7.04 | 5.107 | 3.812 | 2.818 | 2.121 | 1.582 | 1.196 | 0.901 | 0.683
308.15 K | 5.988 | 4.394 | 3.309 | 2.477 | 1.885 | 1.423 | 1.084 | 0.831 | 0.637
313.15 K | 5.091 | 3.804 | 2.897 | 2.191 | 1.686 | 1.288 | 0.991 | 0.772 | 0.596
318.15 K | 4.385 | 3.313 | 2.552 | 1.953 | 1.519 | 1.167 | 0.913 | 0.716 | 0.559
323.15 K | 3.777 | 2.903 | 2.258 | 1.751 | 1.37 | 1.069 | 0.843 | 0.667 | 0.526
